Test results: patent publication US20040023919A1, “Blood lipid ameliorant composition” (SANKYO COMPANY, LIMITED, priority 2000, published 2004)

Legend:
Format in all cases: in vivo, Beagle dogs
[1] = system: GOT; assay: GOT levels in dogs after oral administration (Table 9); settings: relative ratio against averaged pre-dosing level (100), oral once daily, atorvastatin 2 mg/kg, pantethine 300 mg/kg, mean of 5 animals
Description: Atorvastatin was synthesized at Chemtech Labo. Inc., and riboflavin butyrate, d-α-tocopherol acetate, ascorbic acid, pantethine and taurine were purchased from Mitsubishi-Tokyo Pharmaceutical Inc., Eisai Co., Ltd., NIPPON ROCHE K.K., Nacalai Tesque, Inc. and Dai-ich Pharmaceutical Co., Ltd., respectively.
(§1) Beagle dogs aged 5 months were purchased from Covance Research Products Inc. and used after 1 month of quarantine and acclimatisation breeding.
(§2) The required amounts of atorvastatin or each component of the combination drug calculated from the body weight of each dog were weighed and filled in a gelatin capsule (½ ounce) purchased from TORPAC Inc. Capsules filled with atorvastatin were stocked in a refrigerator and those filled with combination drugs stocked at room temperature until use.
(§3) Atorvastatin or combination drug capsules were forcibly orally administered to each of the test animals once daily between 9:00 and 12:30. Animals were fasted for 2 or 3 hr prior to administration of the capsules.
(§4) The administration period was 11 successive days.
Blood (10 mL) was collected from the superficial radial vein 2 or 1 weeks prior to administration and 4, 8, and 12 days after administration was started. Animals were fasted for approximately 18 hr prior to blood collection. Collected blood was placed in a test tube, left at room temperature for 0.5-1 hr, then centrifuged (3,000 rpm for 10 min). […]
(§5) All these levels were determined using a fluorometer (Hitachi, Ltd., F3000), a full automatic analyzer (Monarch, Instrumentation Laboratory), and an automatic analyzer (7170, Hitachi, Ltd.).
Total cholesterol levels and so forth in the blood collected from dogs treated with either atorvastatin alone or a combination drug consisting of atorvastatin plus one of riboflavin butyrate, d-α-tocopherol acetate, ascorbic acid, pantethine and taurine were determined. All these values were converted to their relative ratios against their averaged pre-dosing levels (100) determined 2 and 1 weeks prior to drug administration. […]

[2] = system: total cholesterol in the blood; assay: Blood total cholesterol levels in dogs after oral administration for 11 days (CEH-COD-POD method); settings: relative ratio against averaged pre-dosing level (100), oral once daily, mean of 5 animals
Description: (§6) Atorvastatin was synthesized at Chemtech Labo.
as §1, §2, §3, §4
(§7) Blood (10 mL) was collected from the superficial radial vein 2 or 1 weeks prior to administration and 4, 8, and 12 days after administration was started. Animals were fasted for approximately 18 hr prior to blood collection. Collected blood was placed in a test tube, left at room temperature for 0.5-1 hr, then centrifuged (3,000 rpm for 10 min). The obtained serum was used for assays of blood levels of total cholesterol, lipid peroxides and triglycerides according to CEH-COD-POD (Cholesterol ester hydrolase-Cholesteroloxidase-Peroxidase) methods, Yagi's methods and GK-GPO-POD (Glycerokinase-Glycerolphosphateoxidase-Peroxidase) methods respectively. (For assay method, see: Kanai's Manual of Clinical Laboratory Medicine; 31st Edition (September 1998), Kanehara & Co., Ltd.).
as §5
(§8) All these values were converted to their relative ratios against their averaged pre-dosing levels (100) determined 2 and 1 weeks prior to drug administration. The averaged value in each group was obtained from 5 animals per group.

[3] = system: Blood FFA; assay: Blood FFA levels in dogs after oral administration (Table 8); settings: relative ratio against averaged pre-dosing level (100), oral once daily, atorvastatin 2 mg/kg, AA 500 mg/kg, mean of 5 animals
[4] = system: lipid peroxides in the blood; assay: Blood lipid peroxide levels in dogs after oral administration for 11 days (Yagi's method); settings: relative ratio against averaged pre-dosing level (100), oral once daily, atorvastatin 2 mg/kg, mean of 5 animals
Description: as §6, §1, §2, §3, §4
as §7, with “respectively.” for “respectively. (For assay method, see: Kanai's Manual of Clinical Laboratory Medicine; 31st Edition (September 1998), Kanehara & Co., Ltd.).”
as §8

[5] = system: triglycerides in the blood; assay: Blood triglyceride levels in dogs after oral administration for 11 days (GK-GPO-POD method); settings: relative ratio against averaged pre-dosing level (100), oral once daily, statin 2 mg/kg, taurine 1000 mg/kg, mean of 5 animals
Description: as §6, §1, §2, §3, §4, §7, §5, §8

[6] = atorvastatin 2 mg/kg, RFVb 200 mg/kg
[7] = atorvastatin 2 mg/kg, Tocoph 300 mg/kg
[8] = statin 2 mg/kg, taurine 1000 mg/kg

| Structure (SMILES) | Blood Total Cholesterol Levels after administration, 4 days [2, 6] | Blood Total Cholesterol Levels after administration, 4 days [2, 7] | Blood Total Cholesterol Levels after administration, 8 days [2, 6] | Blood Total Cholesterol Levels after administration, 8 days [2, 7] | Blood Total Cholesterol Levels after administration, 12 days [2, 6] | Blood Total Cholesterol Levels after administration, 12 days [2, 7] | Blood FFA Levels after administration, 4 days [3] | Blood FFA Levels after administration, 8 days [3] | Blood FFA Levels after administration, 12 days [3] | Blood Lipid Peroxide Levels after administration, 4 days ([4]; Tocoph 300 mg/kg) | Blood Lipid Peroxide Levels after administration, 8 days ([4]; Tocoph 300 mg/kg) | Blood Lipid Peroxide Levels after administration, 12 days ([4]; Tocoph 300 mg/kg) | further results |
| --- | --- | --- | --- | --- | --- | --- | --- | --- | --- | --- | --- | --- | --- |
| CC(C)c1c(C(=O)Nc2ccccc2)c(-c2ccccc2)c(-c2ccc(F)cc2)n1CC[C@@H](O)C[C@@H](O)CC(=O)O (relative stereo) [Atorvastatin alone, [R-(R*,R*)]-2-(4-fluorophenyl)-β,δ-dihydroxy-5-(1-methylethyl)-3-phenyl-4-[phenylamino]carbonyl]-1H-pyrrole-1-heptanoic acid] | 102.9 | 102.9 | 95.5 | 95.5 | 90.9 | 90.9 | 102.9 | 95.5 | 90.9 | 104.5 | 84.4 | 80.9 | GOT Levels after administration, 4 days ([1]; 4 days): 102.9; GOT Levels after administration, 8 days ([1]; 8 days): 95.5; GOT Levels after administration, 12 days ([1]; 12 days): 90.9; Blood Lipid Peroxide Levels after administration, 4 days ([4]; pantethine 300 mg/kg): 104.5; Blood Lipid Peroxide Levels after administration, 8 days ([4]; pantethine 300 mg/kg): 84.4; Blood Lipid Peroxide Levels after administration, 12 days ([4]; pantethine 300 mg/kg): 80.9 |
| O=C1O[C@H]([C@@H](O)CO)C(O)=C1O [AA alone, ascorbic acid] | – | – | – | – | – | – | 95.9 | 96.7 | 98.9 | – | – | – | – |
| CCCC(=O)OC[C@@H](OC(=O)CCC)[C@@H](OC(=O)CCC)[C@H](Cn1c2nc(=O)[nH]c(=O)c-2nc2cc(C)c(C)cc21)OC(=O)CCC [RFVb alone, riboflavin butyrate] | 99.5 | – | 99.0 | – | 97.2 | – | – | – | – | – | – | – | – |
| CCC(C)(C)C(=O)O[C@H]1C[C@@H](C)C=C2C=C[C@H](C)[C@H](CC[C@@H]3C[C@@H](O)CC(=O)O3)[C@H]21 [Simvastatin alone] | – | – | – | – | – | – | – | – | – | – | – | – | Blood Total Cholesterol Levels after administration, 4 days [2, 8]: 102.9; Blood Total Cholesterol Levels after administration, 8 days [2, 8]: 95.5; Blood Total Cholesterol Levels after administration, 12 days [2, 8]: 90.9; Blood Triglyceride Levels after administration, 4 days ([5]; 4 days): 87.1; Blood Triglyceride Levels after administration, 8 days ([5]; 8 days): 86.7; Blood Triglyceride Levels after administration, 12 days ([5]; 12 days): 74.1 |
| CC(=O)Oc1c(C)c(C)c2c(c1C)CC[C@@](C)(CCC[C@H](C)CCC[C@H](C)CCCC(C)C)O2 [Tocoph alone, d-α-tocopherol acetate] | – | 97.7 | – | 95.1 | – | 97.5 | – | – | – | 106.3 | 119.0 | 75.9 | – |
